Measured values published in US20090036437A1, “PHARMACEUTICAL COMPOSITION COMPRISING PHENOXAZINIUM COMPOUND AS AN ACTIVE INGREDIENT” (priority 2005, published 2009).
Marks after values point to notes of the source that are not given here.

Legend:
[1] = system: Plasmodium berghei NK65 strain; test: in vivo treatment test by oral administration into mouse infected with malaria; details: for Cure rate (%) / life-elongation effect: oral; for Cure rate (%): 5 days after infection
Method: This test was carried out in accordance with 4-day suppressive test that is a general in vivo test for the activity of an anti-malaria compound. Rodent malaria protozoa (Plasmodium berghei NK65 strain) were used in this test. Infected blood was prepared by infection with intraperitoneal administration into ICR male mouse (5 weeks age; SPF) and passage culture (subculture) thereafter. Blood was drawn from the vein of a tail of the moue infected with malaria, and its infection ratio was determined. After it was confirmed that the infection ratio had been increased up to an appropriated level (10˜20%), the blood infected with malaria was drawn from the heart of the mouse. The infection ratio and number (cells/mL) of erythrocytes were determined. An uninfected mouse (ICR male, 5 weeks age) was then infected with an injection of the infected erythrocytes so diluted with PBS as to comprise the protozoa of […] per dose (0.2 mL) into the vein of its tail.
A test sample was prepared by dissolving the test compounds according to the present invention into physiologic saline (Otsuka Pharmaceuticals Industries) to a predetermined concentration. In the case where the compound was insoluble in water, it was dissolved into DMSO or Tween 20 to prepare the test sample. A control group (no drug-administration group) was treated only with physiologic saline. Weight of the mouse was determined so that a dose would comprise 5.0 mg per 1 kg of its weight.
One group consisted of five mice. The intraperitoneal administration of the test sample started after two hours from the infection with malaria and continued for successive 4 days with a 24-hour interval. After 24 hours from the last administration, blood was drawn from the tail of the infected mouse to prepare a thin-layer smear, and the number of the erythrocytes infected with the malaria protozoa under a microscope with respect to the control group and the test sample groups. Parasitemia, i.e., the infection ratio with the malaria protozoa, was obtained by calculating an average value of the medium three mice except the two mice showing a maximum or minimum inhibition level. A cure rate (suppression) was then calculated from the resulting parasitemia in accordance with the following equation.
Cure rate: suppression (%)=(b−a)/b×100 • a: Infection ratio of the test sample group; and • b: Infection ratio of the control group.
The cure rate (%) of the mice after 5 days from the infection with malaria and the treatment with A-1 (60% purity) according to Example 5 (25-100 mg/kg/day, through the oral administration) were shown in TABLE 6. The oral administration, starting after two hours from the infection with malaria, consisted of four times with a 24-hour interval, 12 times with 8-hour interval or single dose.
The cure rate (%) of the mice after 5 days from the infection with malaria and the treatment with A-1 (100 mg/kg/day, through the oral administration of four times with a 24-hour interval or singe dose) were shown in TABLE 7.

[2] = mouse, in vivo, po
[3] = in vitro growth-inhibiting assay of rat L6 cells; type: cell-based; details: rat, L6 cells (rat skeletal myoblast cells); Table 3; 72 h, Alamar Blue; read-out: 50% growth-inhibiting concentration (nM) cytotoxicity L6

SMILES: CCN(CC)c1ccc2nc3ccc(=[N+](CC)CC)cc-3oc2c1.[Cl-] [A-1 (60% purity)]
- mice still alive after 30 days ([1]; oral 100 mg/kg four times with a 24-hour interval, one mouse died on day 21): three mice of the four mice
- presence of the protozoa of malaria in blood of surviving mice after 36 days ([1]; oral 100 mg/kg four times with a 24-hour interval, three surviving mice): No protozoa of malaria was shown to be present in the blood
- Cure rate (%) ([1]; 12 times with 8-hour interval, 15 mg/kg/dose): >99.99%
- life-elongation effect ([1]; all treatments of Table 6): significant life-elongation effect
- Cure rate (%) ([1]; four times with a 24-hour interval, 25 mg/kg/dose): 82.3%
- Cure rate (%) ([1]; four times with a 24-hour interval, 50 mg/kg/dose): 98.6%
- Cure rate (%) ([1]; four times with a 24-hour interval, 90 mg/kg/dose): >99.99%
- Cure rate (%) ([1]; four times with a 24-hour interval, 100 mg/kg/dose, one of five mice died due to technical error): >99.99* %
- Cure rate (%) ([1]; single administration, 100 mg/kg/dose): >99.99%
- reduction in weight or change of the conditions of mice attributed to side effects [2]: No reduction in weight or change of the conditions of mice

SMILES: CCN(CC)c1ccc2nc3ccc(=[N+](CC)CC)cc-3oc2c1.[Cl-] [A-1 (>95% purity)]
- Cure rate (%) ([1]; Table 7, four times with 24-hour interval, 100 mg/kg/dose): >99.99%
- Cure rate (%) ([1]; Table 7, single administration, 100 mg/kg/dose): 78.3%
- life-elongation effect ([1]; all treatments of Table 7): significant life-elongation effect
- reduction in weight or change of the conditions of mice attributed to side effects [2]: No reduction in weight or change of the conditions of mice

SMILES: CC[N+](CC)=c1ccc2nc3ccc(N(C)C)cc3oc-2c1 [Compound A-4]
- EC50 at 72 h [3]: 4690 nM
